Source: ChEMBL document CHEMBL1154980, “Tetrapeptides possessing a unique skeleton, JBIR-34 and JBIR-35, isolated from a sponge-derived actinomycete, Streptomyces sp. Sp080513GE-23” (J Nat Prod, 2010)
Activity calls are given as the source filed them. The calls are words filed in the database; no cut-off is given here.

Tests used:
[1] = tested on: Radical scavenging activity; assay: Antioxidant activity assessed as DPPH radical scavenging activity after 1 hr; format: functional
Micrococcus luteus = assay: Antibacterial activity against Micrococcus luteus; format: functional, organism-based
Escherichia coli = assay: Antibacterial activity against Escherichia coli; format: functional, organism-based

## C[C@@H](NC(=O)[C@@]1(C)COC(c2cn(C)c3cc(Cl)cc(O)c23)=N1)C(=O)N[C@@H](CO)C(=O)O
[1]
  IC50: 2500 µM
Micrococcus luteus
  Activity: inactive
Escherichia coli
  Activity: inactive

## Cc1c(Cl)cc2c(c(C3=N[C@@](C)(C(=O)N[C@H](C)C(=O)N[C@@H](CO)C(=O)O)CO3)cn2C)c1O
[1]
  IC50: 1000 µM
Micrococcus luteus
  Activity: inactive
Escherichia coli
  Activity: inactive

## Cc1c(C)c2c(c(C)c1O)CC[C@@](C)(CCC[C@H](C)CCC[C@H](C)CCCC(C)C)O2 [ALPHA-TOCOPHEROL]
[1]
  IC50: 50 µM
